Experimental data published in US20080057044A1, “Lactobacillus Plantarum with Body-Fat Reducing Activity and the Foods Containing Them” (priority 2004, published 2008).

What was measured:
[1] = system: Lactobacillus plantarum Strain PL62; assay: Antibiotic resistance (diameter of growth inhibition); assay type: cell-based
From the text: The stronger antibiotic resistance a probiotic has, the higher survivability within the intestines is. Thus, the stronger an antibiotic resistance is, the better it is. However, if an antibiotic resistance is transferred, resistance problems may be brought about. It was confirmed whether an antibiotic resistance was transferred to other bacteria or not.

overweight people = details: 180 overweight people, one year; cited from earlier work

CC1(C)S[C@@H]2[C@H](NC(=O)[C@H](N)c3ccccc3)C(=O)N2[C@H]1C(=O)O [Ampicillin]
Diameter (mm) of growth inhibition [1]: 34 mm

CC1(C)S[C@@H]2[C@H](NC(=O)C(C(=O)O)c3ccccc3)C(=O)N2[C@H]1C(=O)O (some centres unmarked) [Carbenicillin]
Diameter (mm) of growth inhibition [1]: 29 mm

CCN1CCN(C(=O)N[C@@H](C(=O)N[C@@H]2C(=O)N3C(C(=O)O)=C(CSc4nnnn4C)CS[C@H]23)c2ccc(O)cc2)C(=O)C1=O [Cefoperazone]
Diameter (mm) of growth inhibition [1]: 22 mm

CC(=O)OCC1=C(C(=O)O)N2C(=O)[C@@H](NC(=O)Cc3cccs3)[C@H]2SC1 [Cephalothin]
Diameter (mm) of growth inhibition [1]: 25 mm

O=C(N[C@H](CO)[C@H](O)c1ccc([N+](=O)[O-])cc1)C(Cl)Cl [Chloramphenicol]
Diameter (mm) of growth inhibition [1]: 30 mm

CCC[C@@H]1C[C@@H](C(=O)N[C@@H]([C@H]2O[C@H](SC)[C@H](O)[C@@H](O)[C@H]2O)[C@H](C)Cl)N(C)C1 [Clindamycin]
Diameter (mm) of growth inhibition [1]: 20 mm

CC[C@H]1OC(=O)[C@H](C)[C@@H](O[C@H]2C[C@@](C)(OC)[C@@H](O)[C@H](C)O2)[C@H](C)[C@@H](O[C@@H]2O[C@H](C)C[C@H](N(C)C)[C@H]2O)[C@](C)(O)C[C@@H](C)C(=O)[C@H](C)[C@@H](O)[C@]1(C)O [Erythromycin]
Diameter (mm) of growth inhibition [1]: 32 mm

Cc1onc(-c2ccccc2)c1C(=O)N[C@@H]1C(=O)N2[C@@H]1SC(C)(C)[C@@H]2C(=O)O [Oxacillin]
Diameter (mm) of growth inhibition [1]: 11 mm

CCN1CCN(C(=O)N[C@@H](C(=O)N[C@@H]2C(=O)N3[C@@H]2SC(C)(C)[C@@H]3C(=O)O)c2ccccc2)C(=O)C1=O [Piperacilin]
Diameter (mm) of growth inhibition [1]: 37 mm

CO[C@H]1/C=C/O[C@@]2(C)Oc3c(C)c(O)c4c(O)c(c(/C=N/N5CCN(C)CC5)c(O)c4c3C2=O)NC(=O)/C(C)=C\C=C\[C@H](C)[C@H](O)[C@@H](C)[C@@H](O)[C@@H](C)[C@H](OC(C)=O)[C@@H]1C [Rifampin]
Diameter (mm) of growth inhibition [1]: 24 mm

[H]/N=C(/N)N[C@H]1[C@H](O)[C@@H](O)[C@H](O[C@@H]2O[C@@H](C)[C@](O)(C=O)[C@H]2O[C@@H]2O[C@@H](CO)[C@H](O)[C@@H](O)[C@@H]2NC)[C@@H](N/C(N)=N\[H])[C@@H]1O [Streptomycin]
Diameter (mm) of growth inhibition [1]: 8 mm

CN(C)[C@@H]1C(O)=C(C(N)=O)C(=O)[C@@]2(O)C(O)=C3C(=O)c4c(O)cccc4[C@@](C)(O)[C@H]3C[C@@H]12 [Tetracycline]
Diameter (mm) of growth inhibition [1]: 24 mm

CN[C@H](CC(C)C)C(=O)N[C@H]1C(=O)N[C@@H](CC(N)=O)C(=O)N[C@H]2C(=O)N[C@H]3C(=O)N[C@H](C(=O)N[C@H](C(=O)O)c4cc(O)cc(O)c4-c4cc3ccc4O)[C@H](O)c3ccc(c(Cl)c3)Oc3cc2cc(c3O[C@@H]2O[C@H](CO)[C@@H](O)[C@H](O)[C@H]2O[C@H]2C[C@](C)(N)[C@H](O)[C@H](C)O2)Oc2ccc(cc2Cl)[C@H]1O [Vancomycin]
Diameter (mm) of growth inhibition [1]: 6 mm

Gentamicin
Diameter (mm) of growth inhibition [1]: 12 mm

Penicillin
Diameter (mm) of growth inhibition [1]: 29 mm

Trimethpprime/sulfamethoxasole
Diameter (mm) of growth inhibition [1]: 28 mm

conjugated linoleic acid [CLA]
weight loss (overweight people): 4-10%
